{
  "source": "patent US20120035241A1",
  "about": "“USE OF INHIBITORS OF PLAC8 ACTIVITY FOR THE MODULATION OF ADIPOGENESIS” (SANOFI-AVENTIS, priority 2008, published 2012)",
  "key": {"[1]": {"test_system": "SCAT and VAT gene expression", "experiment": "cDNA microarray of visceral and subcutaneous adipose tissue of high fat diet fed mice treated with rimonabant", "type": "in vivo", "settings": "C57BL/6J mice, 6 months HFD, then one month rimonabant 10 mg/kg/day; genes up-regulated by HFD (Plac8 and Rp9h down-regulated)", "from_the_text": "C57BL/6J mice, which are obesity-prone (Collins et al. 2004), were fed for 6 months with a high fat diet (HFD).\nRNA from 5 different mice per group was extracted from visceral and subcutaneous adipose tissues using peqGOLD Trifast™ (peqlab) and chloroform-isoamylalcool (24:1) extraction. RNA was precipitated with isopropanol and purified by passage over RNeasy columns (Qiagen). RNA quality was checked before and after amplification with a Bioanalyzer 2100 (Agilent). RNA was reverse transcribed and RNA was amplified with MessageAmp™ kit (Ambion). A Mouse Universal Reference (Clontech) was similarly amplified and both adipose tissue and reference RNAs were labeled by an indirect technique with Cy5 and Cy3 according to published protocols (De Fourmestraux et al., 2004). Labeled RNAs were hybridized to microarrays containing 17664 cDNAs prepared at the DNA Array Facility of the University of Lausanne. Scanning, image, and quality control analyses were performed as previously published (de Fourmestraux et al., J. Biol. Chem. 2004 279:50743-53). Data were expressed as log2 intensity ratios (Cy5/Cy3), normalized with a print tip locally weighted linear regression (Lowess) method and filtered based on spot quality and incomplete annotation. All analyses were performed with the R software for statistical computing available at the Comprehensive R Archive Network (cran.us.r-project.org/)."}, "Plac8": {"test_system": "Plac8", "experiment": "Retroviral transduction of 3T3-L1 cells with shRNA, Plac8 mRNA by RT-PCR", "type": "cell-based, mouse", "settings": "3T3-L1 cells infected 6 hours with retroviral vectors, day 0 prior differentiation, RT-PCR (FIG. 3B)", "protocol": "3T3-L1 cells were cultured in DMEM (Gibco) with 10% FBS (Gibco) at 5% CO2. After retroviral infection (see below), cells were allow to grow to confluence in either 100-mm or 60-mm dishes in DMEM with 10% FBS. Once confluence was reached, cells were exposed to differentiation medium containing dexamethasone (1 μM), insulin (5 μg/ml), and isobutylmethylxanthine ([…]) (DMI). After 2 days cells were maintained in medium containing insulin (5 μg/ml) until ready for harvest at 7 days.\nRetroviruses were constructed in the RNAi-Ready pSIREN-RetroQ ZsGreen (pSIREN Clontech) or pMSCV puromycin plasmid (pMSCV, Clontech). Viral constructs were transfected using calcium-phosphate method described in Jordan, M., et al. (2004) into 293 HEK packaging cells along with constructs encoding gag-pol and the VSV-G protein. Supernatants were harvested after 48 h in presence of […] of Trichostatin A (Sigma) and either used immediately or snap frozen and stored at −80° C. for later use. Viral supernatants were added to the cells for 6 hours in the presence of polybrene (4 μg/ml) and diluted two times with fresh medium for the next 15 hours.\nTotal RNA was isolated from cultured cells using peqGOLD TriFast reagent according to the manufacturer's instructions (Axonlab). First strand cDNA was synthesized from 0.5 μg of total RNA using random primers and Superscript II (Invitrogen). […]"}},
  "data": [
    {"molecule": "Cc1c(C(=O)NN2CCCCC2)nn(-c2ccc(Cl)cc2Cl)c1-c1ccc(Cl)cc1", "note": "[rimonabant]", "values": [
      {"measurement": "expression of 34 gene candidates regulated by HFD in SCAT and VAT", "setting": "[1]", "value": "normalized"}
    ]},
    {"molecule": "shLuc: negative control siRNA sequence against luciferase, SEQ ID NO. 8 (nucleic acid, listed as DNA, chemistry not fully specified) GATCCGTGCGTTGCTAGTACCAATTCAAGAGATTGGTACTAGCAACGCACTTTTTTACGCGTG", "values": [
      {"measurement": "knockdown for Plac8 (mRNA)", "setting": "Plac8", "value": "no inhibition"}
    ]}
  ]
}
